Experimental data from patent US11865098B1, “Methods and compositions for treating excessive sleepiness” (Axsome Malta Ltd., priority 2017, dated 2024).

Tested on: patients with narcolepsy type 1 or type 2
Experiment: Safety and tolerability (TEAEs, discontinuations), 12-week phase 3 study in narcolepsy
Format: in vivo, human
Settings: for Anxiety, incidence % / Anxiety, incidence n / Any TEAE, incidence % / Any TEAE, incidence n / Constipation, incidence % / Constipation, incidence n / Decreased appetite, incidence % / Decreased appetite, incidence n / Diarrhea, incidence % / Diarrhea, incidence n / Discontinuations due to TEAEs, incidence % / Discontinuations due to TEAEs, incidence n / Dizziness, incidence % / Dizziness, incidence n / Dry mouth, incidence % / Dry mouth, incidence n / Dyspepsia, incidence % / Dyspepsia, incidence n / Fatigue, incidence n / Headache, incidence % / Headache, incidence n / Heart rate increased, incidence n / Influenza, incidence % / Influenza, incidence n / Insomnia, incidence % / Insomnia, incidence n / Nasopharyngitis, incidence % / Nasopharyngitis, incidence n / Nausea, incidence % / Nausea, incidence n / Serious TEAEs, incidence n / Upper respiratory tract infection, incidence % / Upper respiratory tract infection, incidence n / Weight Increased, incidence % / Weight Increased, incidence n / Weight decreased, incidence % / Weight decreased, incidence n / Fatigue, incidence % / Serious TEAEs, incidence % / Heart rate increased, incidence %: safety population
Procedure: The study was a 12-week, double-blind, randomized, placebo-controlled, parallel-group study. Patients were randomized (1:1:1:1) to receive placebo or APC 75, 150, or 300 mg; randomization was stratified by the presence or absence of cataplexy.
Co-primary endpoints were change from baseline to week 12 in MWT mean sleep latency and ESS score. The key secondary endpoint was the percentage of patients who reported improvement on the Patient Global Impression of Change (PGI-C) (Guy, ECDEU assessment manual for psychopharmacology, revised. US Department of Health, Education, and Welfare publication (ADM 76-338). Rockville, MD: National Institute of Mental Health; 1976) at week 12. Other secondary and exploratory endpoints included changes on function and quality-of-life and changes in the number of cataplexy attacks per week. Safety evaluation included adverse events, laboratory tests, and vital signs.

NC(=O)OC[C@H](N)Cc1ccccc1 [JZP-110, (R)-2-amino-3-phenylpropyl carbamate]
Discontinuation rate (75 mg): 16.9% | Anxiety, incidence % (75 mg): (1.7) % | Anxiety, incidence n (75 mg): 1 | Any TEAE, incidence % (75 mg): (57.6) % | Any TEAE, incidence n (75 mg): 34 | Constipation, incidence % (75 mg): (5.1) % | Constipation, incidence n (75 mg): 3 | Decreased appetite, incidence % (75 mg): (8.5) % | Decreased appetite, incidence n (75 mg): 5 | Diarrhea, incidence % (75 mg): (3.4) % | Diarrhea, incidence n (75 mg): 2 | Discontinuations due to TEAEs, incidence % (75 mg): (1.7) % | Discontinuations due to TEAEs, incidence n (75 mg): 1 | Dizziness, incidence % (75 mg): (3.4) % | Dizziness, incidence n (75 mg): 2 | Dry mouth, incidence % (75 mg): (5.1) % | Dry mouth, incidence n (75 mg): 3 | Dyspepsia, incidence % (75 mg): (1.7) % | Dyspepsia, incidence n (75 mg): 1 | Fatigue, incidence n (75 mg): 0 | Headache, incidence % (75 mg): (10.2) % | Headache, incidence n (75 mg): 6 | Heart rate increased, incidence n (75 mg): 0 | Influenza, incidence % (75 mg): (3.4) % | Influenza, incidence n (75 mg): 2 | Insomnia, incidence % (75 mg): (3.4) % | Insomnia, incidence n (75 mg): 2 | Nasopharyngitis, incidence % (75 mg): (8.5) % | Nasopharyngitis, incidence n (75 mg): 5 | Nausea, incidence % (75 mg): (5.1) % | Nausea, incidence n (75 mg): 3 | Serious TEAEs, incidence n (75 mg): 0 | Upper respiratory tract infection, incidence % (75 mg): (1.7) % | Upper respiratory tract infection, incidence n (75 mg): 1 | Weight Increased, incidence % (75 mg): (3.4) % | Weight Increased, incidence n (75 mg): 2 | Weight decreased, incidence % (75 mg): (1.7) % | Weight decreased, incidence n (75 mg): 1 | Discontinuation rate (150 mg): 13.6% | Serious TEAEs (events) (150 mg, one patient, deemed not related by the investigator): 2 serious TEAEs of non-cardiac chest pain and anxiety | Anxiety, incidence % (150 mg): (5.1) % | Anxiety, incidence n (150 mg): 3 | Any TEAE, incidence % (150 mg): (79.7) % | Any TEAE, incidence n (150 mg): 47 | Constipation, incidence % (150 mg): (1.7) % | Constipation, incidence n (150 mg): 1 | Decreased appetite, incidence % (150 mg): (8.5) % | Decreased appetite, incidence n (150 mg): 5 | Diarrhea, incidence % (150 mg): (5.1) % | Diarrhea, incidence n (150 mg): 3 | Discontinuations due to TEAEs, incidence % (150 mg): (5.1) % | Discontinuations due to TEAEs, incidence n (150 mg): 3 | Dizziness, incidence % (150 mg): (1.7) % | Dizziness, incidence n (150 mg): 1 | Dry mouth, incidence % (150 mg): (6.8) % | Dry mouth, incidence n (150 mg): 4 | Dyspepsia, incidence % (150 mg): (3.4) % | Dyspepsia, incidence n (150 mg): 2 | Fatigue, incidence % (150 mg): (3.4) % | Fatigue, incidence n (150 mg): 2 | Headache, incidence % (150 mg): (23.7) % | Headache, incidence n (150 mg): 14 | Heart rate increased, incidence n (150 mg): 0 | Influenza, incidence % (150 mg): (1.7) % | Influenza, incidence n (150 mg): 1 | Insomnia, incidence n (150 mg): 0 | Nasopharyngitis, incidence % (150 mg): (13.6) % | Nasopharyngitis, incidence n (150 mg): 8 | Nausea, incidence % (150 mg): (10.2) % | Nausea, incidence n (150 mg): 6 | Serious TEAEs, incidence % (150 mg): (1.7) % | Serious TEAEs, incidence n (150 mg): 1 | Upper respiratory tract infection, incidence % (150 mg): (6.8) % | Upper respiratory tract infection, incidence n (150 mg): 4 | Weight Increased, incidence n (150 mg): 0 | Weight decreased, incidence % (150 mg): (1.7) % | Weight decreased, incidence n (150 mg): 1 | Discontinuation rate (300 mg): 27.1% | Discontinuation due to adverse events (300 mg, n=5): 8.5% | Anxiety, incidence % (300 mg): (8.5) % | Anxiety, incidence n (300 mg): 5 | Any TEAE, incidence % (300 mg): (67.8) % | Any TEAE, incidence n (300 mg): 40 | Constipation, incidence n (300 mg): 0 | Decreased appetite, incidence % (300 mg): (15.3) % | Decreased appetite, incidence n (300 mg): 9 | Diarrhea, incidence % (300 mg): (5.1) % | Diarrhea, incidence n (300 mg): 3 | Discontinuations due to TEAEs, incidence % (300 mg): (8.5) % | Discontinuations due to TEAEs, incidence n (300 mg): 5 | Dizziness, incidence % (300 mg): (5.1) % | Dizziness, incidence n (300 mg): 3 | Dry mouth, incidence % (300 mg): (10.2) % | Dry mouth, incidence n (300 mg): 6 | Dyspepsia, incidence % (300 mg): (5.1) % | Dyspepsia, incidence n (300 mg): 3 | Fatigue, incidence % (300 mg): (5.1) % | Fatigue, incidence n (300 mg): 3 | Headache, incidence % (300 mg): (30.5) % | Headache, incidence n (300 mg): 18 | Heart rate increased, incidence % (300 mg): (6.8) % | Heart rate increased, incidence n (300 mg): 4 | Influenza, incidence % (300 mg): (1.7) % | Influenza, incidence n (300 mg): 1 | Insomnia, incidence % (300 mg): (5.1) % | Insomnia, incidence n (300 mg): 3 | Nasopharyngitis, incidence % (300 mg): (5.1) % | Nasopharyngitis, incidence n (300 mg): 3 | Nausea, incidence % (300 mg): (16.9) % | Nausea, incidence n (300 mg): 10 | Serious TEAEs, incidence n (300 mg): 0 | Upper respiratory tract infection, incidence n (300 mg): 0 | Weight Increased, incidence % (300 mg): (1.7) % | Weight Increased, incidence n (300 mg): 1 | Weight decreased, incidence % (300 mg): (5.1) % | Weight decreased, incidence n (300 mg): 3 | Discontinuations due to TEAEs compared with placebo (150 and 300 mg groups): greater than placebo | Anxiety, incidence % (All JZP-110): (5.1) % | Anxiety, incidence n (All JZP-110): 9 | Any TEAE, incidence % (All JZP-110): (68.4) % | Any TEAE, incidence n (All JZP-110): 121 | Constipation, incidence % (All JZP-110): (2.3) % | Constipation, incidence n (All JZP-110): 4 | Decreased appetite, incidence % (All JZP-110): (10.7) % | Decreased appetite, incidence n (All JZP-110): 19 | Diarrhea, incidence % (All JZP-110): (4.5) % | Diarrhea, incidence n (All JZP-110): 8 | Discontinuations due to TEAEs, incidence % (All JZP-110): (5.1) % | Discontinuations due to TEAEs, incidence n (All JZP-110): 9 | Dizziness, incidence % (All JZP-110): (3.4) % | Dizziness, incidence n (All JZP-110): 6 | Dry mouth, incidence % (All JZP-110): (7.3) % | Dry mouth, incidence n (All JZP-110): 13 | Dyspepsia, incidence % (All JZP-110): (3.4) % | Dyspepsia, incidence n (All JZP-110): 6 | Fatigue, incidence % (All JZP-110): (2.8) % | Fatigue, incidence n (All JZP-110): 5 | Headache, incidence % (All JZP-110): (21.5) % | Headache, incidence n (All JZP-110): 38 | Heart rate increased, incidence % (All JZP-110): (2.3) % | Heart rate increased, incidence n (All JZP-110): 4 | Influenza, incidence % (All JZP-110): (2.3) % | Influenza, incidence n (All JZP-110): 4 | Insomnia, incidence % (All JZP-110): (2.8) % | Insomnia, incidence n (All JZP-110): 5 | Nasopharyngitis, incidence % (All JZP-110): (9.0) % | Nasopharyngitis, incidence n (All JZP-110): 16 | Nausea, incidence % (All JZP-110): (10.7) % | Nausea, incidence n (All JZP-110): 19 | Serious TEAEs, incidence % (All JZP-110): (0.6) % | Serious TEAEs, incidence n (All JZP-110): 1 | Upper respiratory tract infection, incidence % (All JZP-110): (2.8) % | Upper respiratory tract infection, incidence n (All JZP-110): 5 | Weight Increased, incidence % (All JZP-110): (1.7) % | Weight Increased, incidence n (All JZP-110): 3 | Weight decreased, incidence % (All JZP-110): (2.8) % | Weight decreased, incidence n (All JZP-110): 5
